Laboratory results: publication PMC6007937, “A cell-based infection assay identifies efflux pump modulators that reduce bacterial intracellular load” (PLoS Pathogens, 2018)
Where two headings read alike, the source gives them in different places.

Biological target: AcrB (Escherichia coli, UniProt P31224)
Test: isothermal titration calorimetry (ITC)
Type: binding

Chain of AcrB (P31224 whole entry): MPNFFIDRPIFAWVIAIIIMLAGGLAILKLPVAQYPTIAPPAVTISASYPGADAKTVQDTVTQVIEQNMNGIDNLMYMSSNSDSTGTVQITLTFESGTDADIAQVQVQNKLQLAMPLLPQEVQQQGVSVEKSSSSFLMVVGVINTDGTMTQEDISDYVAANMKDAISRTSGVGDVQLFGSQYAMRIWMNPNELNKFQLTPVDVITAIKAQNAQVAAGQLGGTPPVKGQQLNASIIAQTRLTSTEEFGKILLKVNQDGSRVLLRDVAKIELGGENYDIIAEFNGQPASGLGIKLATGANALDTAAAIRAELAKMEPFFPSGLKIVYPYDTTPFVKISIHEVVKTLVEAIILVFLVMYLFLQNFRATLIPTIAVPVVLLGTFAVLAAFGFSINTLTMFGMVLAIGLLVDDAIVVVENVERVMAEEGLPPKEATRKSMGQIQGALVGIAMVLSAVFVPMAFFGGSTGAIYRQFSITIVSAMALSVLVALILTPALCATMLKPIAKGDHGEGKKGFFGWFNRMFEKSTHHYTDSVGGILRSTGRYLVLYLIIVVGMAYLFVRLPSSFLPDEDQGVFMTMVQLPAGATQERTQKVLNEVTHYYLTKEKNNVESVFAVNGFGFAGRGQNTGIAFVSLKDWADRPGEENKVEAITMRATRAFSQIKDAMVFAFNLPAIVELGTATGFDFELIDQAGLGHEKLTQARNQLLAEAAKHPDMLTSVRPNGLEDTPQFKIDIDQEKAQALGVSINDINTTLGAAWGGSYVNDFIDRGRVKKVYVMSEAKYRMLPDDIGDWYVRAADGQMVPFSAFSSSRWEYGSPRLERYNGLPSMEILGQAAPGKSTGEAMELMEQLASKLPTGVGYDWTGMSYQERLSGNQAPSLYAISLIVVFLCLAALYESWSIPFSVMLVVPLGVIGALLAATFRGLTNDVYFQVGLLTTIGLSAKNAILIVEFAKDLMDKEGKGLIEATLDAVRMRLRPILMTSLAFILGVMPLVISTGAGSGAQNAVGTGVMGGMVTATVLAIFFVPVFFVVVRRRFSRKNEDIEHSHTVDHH

Row | Compound | Kd (read-out: KD) [nM] | Kd [nM]
1 | Cc1ccc(Sc2cccc3nc(N)nc(N)c23)cc1 [EPM43] | 560 ± 60 | 
2 | CC(C)(C)c1nc(NC(=N)N)sc1Br [EPM30] | 1790 ± 370 | 
3 | OC(COc1ccc(Cl)c(Cl)c1)CN1CCC(Nc2nccc(C(F)(F)F)n2)CC1 (stereo not drawn) [EPM35] |  | 290 ± 30
